In patent US7319015B2, “Methods and compositions for using alveolar macrophage phospholipase A2” (The Regents of The University of Michigan, priority 2004, dated 2008):
Where “and” joins values, the source holds several entries; their conditions need not be identical. Identical values can stand only once. Entries after “also recorded” stand apart in the source; their conditions may differ. Like-named read-outs stand apart in the source and are kept apart here. Values belong to the molecule of their own block, whether it stands above or below them.

Legend:
LPLA2 [1] = target: T1, LPLA2 (Canis lupus familiaris, UniProt Q6XPZ3); test: LPLA2 (transacylase/phospholipase A2) activity assay in MDCK cell homogenates with cationic amphiphilic drugs; format: biochemical; conditions: FIG. 1A; for inhibition of LPLA2 transacylase and phospholipase A2 activity (in words): enzyme assay for LPLA2 activity
T1 construct: endogenous in cells; host or cells: MDCK cell homogenate
T1 sequence (Q6XPZ3 32-408): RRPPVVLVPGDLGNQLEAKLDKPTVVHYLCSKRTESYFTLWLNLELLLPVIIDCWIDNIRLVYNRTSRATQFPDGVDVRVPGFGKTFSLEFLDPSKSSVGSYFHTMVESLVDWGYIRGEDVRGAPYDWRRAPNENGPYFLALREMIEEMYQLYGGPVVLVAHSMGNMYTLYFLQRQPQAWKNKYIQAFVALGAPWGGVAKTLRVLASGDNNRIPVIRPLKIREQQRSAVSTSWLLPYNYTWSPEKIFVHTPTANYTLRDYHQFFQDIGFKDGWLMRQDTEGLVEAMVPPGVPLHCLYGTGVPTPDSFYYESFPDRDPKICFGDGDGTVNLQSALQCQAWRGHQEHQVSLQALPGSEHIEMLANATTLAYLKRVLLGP
Experimental: (§1) Phospholipids, DOPC and PE, and N-acetylsphingosine (NAS) were used in the assay system as a donor and an acceptor, respectively, of an acyl group. The transacylase activity was determined by analysis of 1-O-acyl-N-acetylsphingosine formation rate. The reaction mixture consisted of 45 mM sodium citrate (pH 4.5), 10 μg/ml bovine serum albumin, 40 μM NAS incorporated into phospholipid liposomes (DOPC/PE/dicetyl phosphate/NAS (5:2:1:2 in molar ratio)) and soluble fraction (0.7-10 μg) in a total volume of 500 μl. The reaction was initiated by adding the soluble fraction, kept for 5-60 min at 37° C. and terminated by adding 3 ml of chloroform/methanol (2:1) plus 0.3 ml of 0.9% (w/v) NaCl. The mixture was centrifuged for 5 min at room temperature. The resultant lower layer was transferred into another glass tube and dried down under a stream of nitrogen gas. The dried lipid dissolved in 40 μl of chloroform/methanol (2:1) was applied on an HPTLC plate and developed in a solvent system consisting of chloroform/acetic acid (9:1). The plated was dried down and soaked in 8% (w/v) CuSO4, 5H2O, 6.8% (v/v) H3PO4, 32% (v/v) methanol. The uniformly wet plate was briefly dried down by a hair dryer and charred for 15 min in a 150° C. oven. The plate was scanned and the amount of the reaction products was estimated by NIH-image 1.62.
Res., 35:1232-1240, 1994]. PDMP and its related homologs contain a hydrophilic domain with a substituted nitrogen and a hydrophobic aromatic group, functional groups that are typical of CADs in general.

MDCK cells [2] = tested on: MDCK cells
MDCK cells [3] = conditions: MDCK cells treated at the IC50 for transacylase inhibition, 7 days, FIG. 2
CHO cells = CHO cells (Rosenwald and Pagano 1994); cited from earlier work
[4] = target: T2, 1-O-acylceramide synthase (LPLA2) (Bos taurus, UniProt Q8WMP9); conditions: initial characterization of the enzyme, cited from earlier work
T2 sequence (Q8WMP9 30-407): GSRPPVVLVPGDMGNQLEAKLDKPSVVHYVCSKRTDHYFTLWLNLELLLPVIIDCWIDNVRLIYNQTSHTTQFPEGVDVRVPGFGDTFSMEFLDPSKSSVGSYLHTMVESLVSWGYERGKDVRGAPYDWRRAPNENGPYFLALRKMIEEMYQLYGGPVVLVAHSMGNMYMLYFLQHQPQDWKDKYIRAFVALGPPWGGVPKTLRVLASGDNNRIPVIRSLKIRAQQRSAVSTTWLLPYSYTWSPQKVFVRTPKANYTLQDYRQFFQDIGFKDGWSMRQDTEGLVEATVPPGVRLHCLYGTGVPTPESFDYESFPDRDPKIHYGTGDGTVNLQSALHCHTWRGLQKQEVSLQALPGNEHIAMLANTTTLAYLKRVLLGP

LPLA2 [5] = target: LPLA2 (Rattus norvegicus, UniProt Q675A5); conditions: rat AM soluble fraction 2.42 μg protein/ml, citrate buffer pH 4.5, 40 μM NAS, different concentrations of MJ33
Sequence of LPLA2 (Rattus norvegicus, UniProt Q675A5) (Q675A5 34-413): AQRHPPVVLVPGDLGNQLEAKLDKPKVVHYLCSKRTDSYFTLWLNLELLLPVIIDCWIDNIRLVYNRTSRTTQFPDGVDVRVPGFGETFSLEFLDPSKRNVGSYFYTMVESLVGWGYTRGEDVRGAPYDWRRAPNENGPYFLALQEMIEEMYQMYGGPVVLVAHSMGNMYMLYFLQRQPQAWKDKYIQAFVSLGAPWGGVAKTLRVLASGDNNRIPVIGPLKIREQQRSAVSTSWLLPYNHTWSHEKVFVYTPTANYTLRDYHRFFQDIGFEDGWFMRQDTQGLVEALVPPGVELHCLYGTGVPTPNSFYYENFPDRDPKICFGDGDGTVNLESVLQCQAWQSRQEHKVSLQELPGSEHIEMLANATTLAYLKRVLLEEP
Experimental: as §1, with “The uniformly wet plate was briefly dried down by a hair dryer and charred for 15 min in a 150° C. oven. The plate was scanned and the amount of the reaction products was estimated by NIH-image 1.62.” left out
(§2) In the studies the effect of MJ33 on LPLA2 transacylation activity in rat alveolar macrophages and c-myc-tagged mouse LPLA2 transfected COS 7 cells was also determined. […] The enzyme activity was determined as described in the Example 1.

c-myc-tagged mouse LPLA2 = c-myc-tagged mouse LPLA2 (Mus musculus, UniProt Q8VEB4); conditions: soluble fraction of LPLA2 transfected COS 7 cells 2.26 μg protein/ml, citrate buffer pH 4.5, 40 μM NAS
Sequence of c-myc-tagged mouse LPLA2 (Q8VEB4 34-412): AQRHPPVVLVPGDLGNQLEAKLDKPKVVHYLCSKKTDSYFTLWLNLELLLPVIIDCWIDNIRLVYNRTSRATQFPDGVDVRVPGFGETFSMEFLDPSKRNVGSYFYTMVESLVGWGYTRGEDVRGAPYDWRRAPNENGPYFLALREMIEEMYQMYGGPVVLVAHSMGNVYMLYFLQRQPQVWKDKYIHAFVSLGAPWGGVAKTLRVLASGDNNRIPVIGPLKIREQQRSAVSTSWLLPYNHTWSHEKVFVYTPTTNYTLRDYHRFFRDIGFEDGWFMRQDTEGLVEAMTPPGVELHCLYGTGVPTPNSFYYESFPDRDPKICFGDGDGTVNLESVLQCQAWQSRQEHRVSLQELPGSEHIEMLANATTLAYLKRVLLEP
Experimental: as §1, with “The uniformly wet plate was briefly dried down by a hair dryer and charred for 15 min in a 150° C. oven. The plate was scanned and the amount of the reaction products was estimated by NIH-image 1.62.” left out
as §2

[6] = tested on: surfactant phospholipid catabolism; conditions: rats treated with MJ33 (Fisher et al. 2001); cited from earlier work
[7] = tested on: dipalmitoyl-phosphatidylcholine degradation; conditions: murine lung, previously demonstrated; cited from earlier work

IC50 (LPLA2 [1]; enzyme assay for LPLA2 (transacylase) activity, read-out: IC50 / half maximal inhibition of LPLA2 activity): 30 µM and 50 µM | inhibition of LPLA2 transacylase and phospholipase A2 activity (in words) (LPLA2 [1]): potently inhibited | total phospholipid content (MDCK cells [2]; MDCK cells incubated for up to 7 days, 15 μM, FIG. 1B): Modest, but significant increases | content of phosphatidylethanolamine and phosphatidylcholine (MDCK cells [2]; MDCK cells, time-dependent changes, FIG. 1C/1D): increased
SMILES: CCCCCCCCCC(=O)N[C@H](CN1CCOCC1)[C@H](O)c1ccccc1 [PDMP, D-threo-1phenyl-2-decanoylamino-3-morphilino-propanol]
lysosomal phospholipid inclusions by electron microscopy (MDCK cells [3]): obvious lysosomal phospholipid inclusions | induction of lysosomal lamellar inclusions (CHO cells): induced lysosomal lamellar inclusions

inhibition of LPLA2 transacylase and phospholipase A2 activity (in words) (LPLA2 [1]): comparable to but greater than PDMP
SMILES: CCCCc1oc2ccccc2c1C(=O)c1cc(I)c(OCCN(CC)CC)c(I)c1 [Amiodarone, amiodarone]

SMILES: CCCCC/C=C\C/C=C\C/C=C\C/C=C\CCCC(=O)C(F)(F)F [nonadecyltetraenyl trifluoromethyl ketone]
inhibition of enzyme activity [4]: insensitive; also recorded: did not inhibit

inhibition of transacylase activity (LPLA2 [5]): concentration dependent inhibition | inhibition of transacylase activity (c-myc-tagged mouse LPLA2): comparable response
SMILES: CCCCCCCCCCCCCCCCOCC(COCC(F)(F)F)OP(=O)(O)OC (centres unmarked) [MJ33]
inhibition of surfactant phospholipid catabolism [6]: 40 to 50% | block of dipalmitoyl-phosphatidylcholine degradation [7]: block the majority

SMILES: O=C1O/C(=C/Br)CCC1c1cccc2ccccc12 (centres unmarked) [bromoenollactone]
inhibition of enzyme activity [4]: did not inhibit | inhibition of enzyme activity ([4]; listed as bromoenol lactone): insensitive
